# Test results: patent US8097581B2, “Anti-wrinkle cosmetic composition” (Grant Industries Inc., priority 2007, dated 2012)
# Experiments:
# [1] = test system: human dermal fibroblast cultures; test: Stimulation of mitochondrial metabolic activity (MTT method); format: cell-based; conditions: 10 ng/ml; positive control
# Description: In order to maintain youthful appearance, skin needs to constantly replace and regenerate its damaged components. This is predominantly the role of dermal fibroblasts. How well this job is done depends on the metabolic vigor of these cells as damaged or dormant fibroblasts will not be able to actively produce the replacement parts for the skin. This is why the stimulation of their metabolic activity is viewed as beneficial to the skin, not unlike the stimulation of metabolic activity is beneficial to the muscle. We tested the effect of RD1071 on the metabolic activity of mitochondria of human dermal fibroblast cultures using MTT method (Berridge et al., 1993). Mitochondria are cellular powerhouses producing energy (ATP) for the entire cell. […] Thus, example 1 (RD1071) increases cellular metabolism in a dose-dependant manner. The positive control in this experiment is use of basic fibroblast growth factor, bFGF at 10 ng/ml concentration.
# fibroblast cultures = test: Total protein production stimulation (method of Skehan et al.); format: cell-based, human; conditions: 10 ng/ml; positive control
# Procedure: The stimulation of metabolic activity by RD1071 also translated into an increase of total protein content in fibroblast cultures. […] For example, UV radiation and aging are associated with the increased proteolytic activity in the skin. The stimulation of total protein production could counterbalance the loss of proteins caused by this increased proteolytic activity. Total protein was measured using the method of Skehan et al. (1990). […] The basic fibroblast growth factor, bFGF, was again used as a positive control.
substance,measurement,setting,value
"bFGF: basic fibroblast growth factor, positive control at 10 ng/ml",Mitochondrial Metabolism % Control,[1],174 % Control
same,Protein Stimulation % Control,fibroblast cultures,118 % Control
